Tests used:
vanilla beans = assay: Vanillin content analysis by spectrophotometry of treated, cured vanilla beans; parameters: species or system Vanilla planifolia; details: relative to water control; FIG. 1; concentrations as in Table 1
Method: Target chemical compounds (set forth in table 1 below) were dissolved in water and pH adjusted to pH-7. Green beans cut into 1 cm pieces were placed in a 50 ml tube or intact beans placed in a bucket. A 10 ml solution containing one of the compounds indicated in Table 1 dissolved in water and 0.1% of each of the four surfactants tween 20, tween 80, span 20, and span 80 was added per each bean. The beans were incubated with the solution for 0.5-36 hours (e.g. overnight) at room temperature. The solution was the filtered out, the beans washed, and placed in a drying chamber with controlled temperature and humidity conditions to provide killing and curing as known in the art. The beans were weighted daily and at a 25-30% of their original weight, subjected to vanillin content analysis by spectrophotometry, as well as to a flavor test by a sensory panel.

Vanilla planifolia beans = assay: GC-MS headspace (SPME) analysis of treated vanilla beans (Example 2); details: for Phenylethyl Alcohol and 3-Phenyl-2-propenoic acid methyl ester / compounds giving a vinegar anisic and creamy flavor (acetic acid, creosol and 2,3-Butanediol): FIG. 3E, glutathione results not shown; for vanillin levels: GC-MS headspace vs control, FIG. 3A-3E; for constituents delivering vinegar anisic and floral flavors (acetic acid, creosol and acetoin): 3C
Source text: The treated vanilla beans were further analyzed by Gas Chromatography-Mass Spectrometry (GC-MS) in headspace mode with solid phase micro extraction (SPME) fiber. Compound identification was done by retention index and mass spectra. Compound flavor was obtained by searching a compound name in the following databases: https://pubchem.ncbi.nlm.nih.gov/ and […].com/.

Compound | vanillin content (abundance of vanillin) (vanilla beans) | Phenylethyl Alcohol and 3-Phenyl-2-propenoic acid methyl ester (Vanilla planifolia beans) | compounds giving a vinegar anisic and creamy flavor (acetic acid, creosol and 2,3-Butanediol) (Vanilla planifolia beans) | vanillin levels (Vanilla planifolia beans) | acetic acid, 2,3-Butanediol and acetoin (Vanilla planifolia beans; FIG. 3D) | level of compounds giving anisic and floral flavors (creosol and benzeneacetaldehyde) (Vanilla planifolia beans; FIG. 3D) | levels of constituents resulting in a nutty flavor (3-hydroxy-Benzaldehyde) (Vanilla planifolia beans; FIG. 3B) | constituents delivering vinegar anisic and floral flavors (acetic acid, creosol and acetoin) (Vanilla planifolia beans; FIG. 3B) | levels of constituents delivering a nutty coffee flavor (3-hydroxy-Benzaldehyde and 2-methyl-Butanal) (Vanilla planifolia beans; FIG. 3C)
N[C@@H](CCC(=O)N[C@@H](CS)C(=O)NCC(=O)O)C(=O)O [L- glutathione] | reduced vanillin content | induced the formation | reduced abundance | increase | – | – | – | – | –
N[C@@H](Cc1ccccc1)C(=O)O [L-Phenylalanine] | reduced vanillin content | induced the formation | reduced abundance | increase | – | – | – | – | –
CC(=O)C(=O)O [Pyruvic acid] | – | – | – | increase | formation | decreasing | – | – | –
O=C(O)c1ccccc1O [Salicylic acid] | large increase | – | – | marked increase | – | – | increased | decrease | –
Chitosan | – | – | – | milder increase | – | – | – | decrease | increased
